Measurements taken from patent US20230263798A1, “COMPOSITIONS AND METHODS FOR TREATING THERAPY RESISTANT CANCER” (The General Hospital Corporation, priority 2020, published 2023).
Entries after “also recorded” stand apart in the source; their conditions may differ.

What was measured:
Format in all cases: cell-based
[1] = tested on: PARP1; experiment: Western blot analysis of PARP1; details: treated cells
Protocol: (§1) FIGS. 8C and 8D show Western blot analysis of PARP1, phospho-elF2α, METTL3 with doxorubicin or Sal003 treatment. […] 500 nM Doxorubicin treated MCF7 cells were co-treated with 6uM of Enzastaurin or DMSO buffer. […] Data are average of 3 replicates +/-SEM.
Consistently, doxorubicin treated cells are sensitive to PARP inhibitors, such as Talazoparib (BMN-673, FIG. 8B).

[2] = tested on: METTL14; experiment: Western blot analysis of METTL14 in MCF7 cells; details: for METTL14 level in doxorubicin treated cells co-treated with agent: doxorubicin treated cells plus agent (FIGS. 3D and 3E)
Description: (§2) Tubulin and Histone serve as Western blot loading controls. Data are average of 3 replicates +/-SEM. See also FIGS. 4A-4H.
(§3) Actin and Tubulin are loading controls for Western blots. Data are average of 3 replicates +/-SEM.
(§4) Western blot is shown of other RNA binding proteins that increase in mass spectrometry data. […] FIGS. 6J and 6K show Hexim, PPM1G and HuR increase in chemotreated patient samples and on doxorubicin treatment.
(§5) If METTL3 is increased by Sal003, then m6A on RNA should increase in such conditions.

[3] = tested on: METTL3; experiment: Western blot analysis of METTL3 in MCF7 cells; details: for METTL3 level in doxorubicin treated cells co-treated with agent: doxorubicin treated cells plus agent vs buffer treated
Description: The Western blot includes samples with control shRNA or shMETTL3. […] Tubulin and Histone serve as Western blot loading controls. Data are average of 3 replicates +/-SEM. See also FIGS. 2A-2G.
(§6) Data are average of 3 replicates +/-SEM. Tubulin serves as the loading control.
as §2, §3, §1
To determine the mechanisms of specific mRNA expression in chemosurviving cancer cells, we examined RNA binding regulators in chemosurviving MCF7 breast cancer cells, isolated after doxorubicin chemotherapy treatment.

[4] = tested on: ATF4; experiment: Western analysis of ATF4 (ISR response gene); details: for ATF4 level in doxorubicin treated cells co-treated with agent: doxorubicin treated cells plus agent vs buffer treated
Description: as §5

[5] = tested on: m6A on RNA; experiment: m6A on ribosomal RNA depleted RNA (dot blot, 2D-TLC)
Protocol: The Western blot includes samples with control shRNA or shMETTL3. […] Tubulin and Histone serve as Western blot loading controls. Data are average of 3 replicates +/-SEM. See also FIGS. 2A-2G. […]
To test whether the increased m6A modification enzymes lead to increased m6A modification on RNA, ribosomal RNA depleted RNA from doxorubicin treated cells compared to untreated cells by dot blot analyses was tested. […] Consistent with decreased METTL3 upon knockdown, the dot blot signal is depleted when METTL3 is knocked down (FIG. 1B). Second, RNA from doxorubicin treated cells for m6A by two-dimensional-thin layer chromatography separation (2D-TLC) was performed (H. Grosjean, G. Keith, L. Droogmans, Detection and quantification of modified nucleotides in RNA using thin-layer chromatography. Methods in molecular biology (Clifton, N.J.) 265, 357-391 (2004)).

[6] = tested on: phospho-elF2α; experiment: Western blot of elF2α phosphorylation in MCF7 cells; details: for elF2α phosphorylation: MCF7 cells, agent alone, Western blot; for elF2α phosphorylation in doxorubicin treated cells with agent: addition to doxorubicin treated cells (FIG. 8F)
Protocol: as §1

[7] = tested on: METTL3 mRNA; experiment: METTL3 mRNA level and translation (qPCR, polysome fractionation, nascent amino acid labeling); details: treated vs buffer treated cells, polysome fractionation and qPCR
Protocol: as §2, §3
To verify that the increase in METTL3 was at the translation level, polysome analysis was conducted first. […] We next verified increased polysome association of METTL3 mRNA with Y10B antibody immunoprecipitation in doxorubicin treated and in Sal003 cells compared to buffer treated cells (FIGS. 3I and 4F).

[8] = tested on: CD14+ monocytes, CD8+ T cells, and NK (NK92) cells; experiment: Co-culture of treated cancer cells with immune cells; details: untreated or doxorubicin or gemcitabine treated cells plus agent
Description: APOBEC3B would lead to neoepitopes that could trigger the immune system. However, this is not readily seen as inhibitors of immune cells such as TGF-β that inhibits NK cells are increased in doxorubicin treated breast cancer cells. […] M6A also downregulates antiviral innate immune response while promoting ADAR1 that suppresses antiviral immunity. Therefore, inhibition of METTL3 would activate them.

[9] = tested on: MCF7 cells; experiment: Doxorubicin chemosurvival of MCF7 cells; details: for doxorubicin chemosurvival with co-treatment: 500 nM Doxorubicin treated MCF7 cells co-treated with agent (5 uM Trazodone, 5 uM ISRIB, 6uM Enzastaurin) vs DMSO buffer
Protocol: This was tested in METTL3 overexpression cells compared to CD-M3 cells compared to control Actin mRNA by qPCR. […] 500 nM Doxorubicin treated MCF7 cells were co-treated with (i) 5 uM of Trazodone, (ii) 5 uM of ISRIB, or DMSO buffer. […] Data are average of 3 replicates +/-SEM. Actin and Tubulin are loading controls for Western blots. See also FIG. 8A-8l.
as §1

[10] = tested on: METTL3; experiment: Western blot of METTL3 in THP1 cells; details: 1 µM Cytarabine over time
[11] = tested on: phospho-elF2α; experiment: Western blot of elF2α phosphorylation in THP1 cells; details: 1 µM Cytarabine over time
[12] = tested on: Hexim1; experiment: Western blot of Hexim1; details: treated cells
Description: as §4
Other RNA binding proteins such as HEXIM1 and PPM1G that increase in doxorubicin surviving cells also associate with METTL3 mRNA and with HuR. The indirect associated protein, Hexim1 is a transcription regulator but also associates with other complexes and RNAs and promotes mRNA stability under nucleotide stress. […] The phosphatase PPM1G is known to associate with Hexim1 and is activated by DNA damage/ATM signaling upon chemotherapy treatment, and upon PI3K/Akt inhibition, consistent with these conditions where METTL3 increases. On Akt inhibition, PPM1G dephosphorylates 4EBP; this inhibits canonical translation, consistent with specific mRNA translation elicited in these conditions.
Therefore, we tested whether Hexim1 was required for METTL3 levels.

[13] = tested on: phospho-elF2α; experiment: Western blot of elF2α phosphorylation in BT549 cells; details: over time of treatment
Protocol: as §6
To determine the mechanisms of specific mRNA expression in chemosurviving cancer cells, we examined RNA binding regulators in chemosurviving MCF7 breast cancer cells, isolated after doxorubicin chemotherapy treatment. […] The increase observed is transient and is not observed at 48 h of treatment (FIG. 2A).

[14] = tested on: METTL3; experiment: Western blot of METTL3 in BT549 cells; details: over time of treatment
[15] = MCF7 cells, agent alone vs untreated/buffer, Western blot
[16] = ribosomal RNA depleted RNA from treated vs untreated MCF7 cells, dot blot or 2D-TLC

## O=C(/C=C/c1ccccc1)NC(NC(=S)Nc1ccc(Cl)cc1)C(Cl)(Cl)Cl (centres unmarked) [Sal003]
[1]
  PARP1 level: increases
[2]; [15]
  METTL14 level: increased
[3]; [15]
  METTL3 level: increased
[4]; MCF7 cells, agent alone
  non-canonical translation of ATF4: induced
[5]; [16]
  m6A on RNA: increased
[6]
  elF2α phosphorylation: prevented dephosphorylation
[7]
  METTL3 mRNA on polysomes compared to monosomes: increased

## O=c1n(CCCN2CCN(c3cccc(Cl)c3)CC2)nc2ccccn12 [trazodone]
[8]
  survival of treated cancer cells co-cultured with immune cells: loss of survival
[2]
  METTL14 level in doxorubicin treated cells co-treated with agent: prevent
[9]
  doxorubicin chemosurvival with co-treatment: significant decrease
[9]; METTL3 depleted (shMETTL3) cells, doxorubicin plus Trazodone vs buffer (FIG. 8A)
  doxorubicin chemosurvival of shMETTL3 cells with agent: Synergistic decrease in chemosurvival was not observed
[3]; Western blot
  METTL3 level in doxorubicin treated cells co-treated with agent: do not show increase
[4]
  ATF4 level in doxorubicin treated cells co-treated with agent: do not show increase

## C/C=C(/C)C(=O)O[C@H]1C(C)=C2[C@H]([C@@H]1OC(=O)CCCCCCC)[C@@](C)(OC(C)=O)C[C@H](OC(=O)CCC)[C@@]1(O)[C@H]2OC(=O)[C@@]1(C)O [thapsigargin]
[2]; [15]
  METTL14 level: increase
[3]; [15]
  METTL3 level: increase
[6]
  elF2α phosphorylation: induces

## Cn1ncnc1[C@H]1c2n[nH]c(=O)c3cc(F)cc(c23)N[C@@H]1c1ccc(F)cc1 [Talazoparib]
[9]
  doxorubicin chemosurvival with co-treatment: sensitive

## CCC(=O)N1CCN(c2ccc(-n3c(=O)ccc4cnc5ccc(-c6cnc7ccccc7c6)cc5c43)cc2C(F)(F)F)CC1 [Torin1]
[2]; MCF7 3D tumor spheres
  METTL14 level: increase
[3]; MCF7 3D tumor spheres
  METTL3 level: increase
[3]; [15]
  METTL3 level: increased
[5]; MCF7 3D tumor spheres, dot blot
  m6A on RNA: increased
[6]
  elF2α phosphorylation: elF2α phosphorylation

## CC(C)(C)Cn1c(N)nc2ccc(-c3[nH]c(C(C)(C)C)nc3-c3ccc(F)cc3)nc21 [LY2228820]
[3]; Western blot
  METTL3 level in doxorubicin treated cells co-treated with agent: reduces METTL3 increase

## [H]/N=C(/N)N/C(=N/[H])NCCc1ccccc1 [phenformin]
[8]
  survival of treated cancer cells co-cultured with immune cells: loss of survival
[9]
  doxorubicin chemosurvival with co-treatment: decreased chemosurvival; also recorded: reduced doxorubicin survival
[3]; Western blot
  METTL3 level in doxorubicin treated cells co-treated with agent: decreased induction
[6]
  elF2α phosphorylation in doxorubicin treated cells with agent: reduction

## Nc1ncnc2c1nnn2[C@@H]1O[C@H](CO)[C@@H](O)[C@H]1O [8-azaadenosine]
[8]
  survival of treated cancer cells co-cultured with immune cells: sensitive to anti-tumor immunity
[9]
  doxorubicin chemosurvival with co-treatment: reduced doxorubicin survival

## Cn1cc(C2=C(c3cn(C4CCN(Cc5ccccn5)CC4)c4ccccc34)C(=O)NC2=O)c2ccccc21 [Enzastaurin]
[9]
  doxorubicin chemosurvival with co-treatment: reduced
[3]; Western blot
  METTL3 level in doxorubicin treated cells co-treated with agent: reduced

## O=C(COc1ccc(Cl)cc1)NC1CCC(NC(=O)COc2ccc(Cl)cc2)CC1 (centres unmarked) [ISRIB]
[8]
  survival of treated cancer cells co-cultured with immune cells: loss of survival
[2]
  METTL14 level in doxorubicin treated cells co-treated with agent: prevent
[9]
  doxorubicin chemosurvival with co-treatment: significant decrease
[3]; Western blot
  METTL3 level in doxorubicin treated cells co-treated with agent: do not show increase
[4]
  ATF4 level in doxorubicin treated cells co-treated with agent: do not show increase

## CN(C)C(=N)N=C(N)N [metformin]
[8]
  survival of treated cancer cells co-cultured with immune cells: loss of survival
[9]
  doxorubicin chemosurvival with co-treatment: decreased chemosurvival
[3]; Western blot
  METTL3 level in doxorubicin treated cells co-treated with agent: decreased induction
[6]
  elF2α phosphorylation in doxorubicin treated cells with agent: reduction

## Cn1c(=O)n(-c2ccc(C(C)(C)C#N)cc2)c2c3cc(-c4cnc5ccccc5c4)ccc3ncc21 [BEZ 235]
[3]; [15]
  METTL3 level: Increase
[6]
  elF2α phosphorylation: elF2α phosphorylation

## Nc1ccn([C@@H]2O[C@H](CO)[C@@H](O)[C@@H]2O)c(=O)n1 [Cytarabine]
[10]
  METTL3 level: transient increase
[11]
  elF2α phosphorylation: transient increase

## poly I:C
[2]; [15]
  METTL14 level: increase
[3]; [15]
  METTL3 level: increase
[12]
  Hexim1 level: increases
[5]; [16]
  m6A on RNA: increased
[6]
  elF2α phosphorylation: induces

## Nc1ccn([C@@H]2O[C@H](CO)[C@@H](O)C2(F)F)c(=O)n1 [Gemcitabine]
[13]
  elF2α phosphorylation: increase over time
[3]; [15]
  METTL3 level: increase over time
[14]
  METTL3 level: increase over time
[6]
  elF2α phosphorylation: increase over time

## CC(=O)O[C@H]1C(=O)[C@@]2(C)[C@H]([C@H](OC(=O)c3ccccc3)[C@]3(O)C[C@H](OC(=O)[C@H](O)[C@@H](NC(=O)c4ccccc4)c4ccccc4)C(C)=C1C3(C)C)[C@]1(OC(C)=O)CO[C@@H]1C[C@@H]2O [Taxol]
[13]
  elF2α phosphorylation: increase over time
[14]
  METTL3 level: increase over time

## O=[N+]([O-])c1ccc(Nc2nc(N3CCOCC3)nc(N3CCOCC3)n2)cc1 [MHY1485]
[3]; [15]
  METTL3 level: decreased

## COc1ccc(COc2cc3oc(=O)c4cc(C(C)O)ccc4c3cc2OC)cc1 (centres unmarked) [Palomid 529]
[3]; [15]
  METTL3 level: Increase

## CC(=O)NCCCCCCNC(C)=O [HMBA]
[2]; [15]
  METTL14 level: increases
[3]; [15]
  METTL3 level: increased
[12]
  Hexim1 level: increased
[6]
  elF2α phosphorylation: elF2α phosphorylation

## C[S+]([O-])c1ccc(-c2nc(-c3ccncc3)c(-c3ccc(F)cc3)[nH]2)cc1 (centres unmarked) [SB203580]
[3]; Western blot
  METTL3 level in doxorubicin treated cells co-treated with agent: reduces METTL3 increase
